According to ChEMBL document CHEMBL1141723, “Specific targeting of metzincin family members with small-molecule inhibitors: progress toward a multifarious challenge” (Bioorg Med Chem, 2008):
The source made the active and inactive calls. The rule behind the calls is not given here.

Experiments:
Collagenase 3 = Collagenase 3 (Homo sapiens, UniProt P45452); test: Inhibition of MMP13
[1] = target: T1, Matrix metalloproteinase-9 (Homo sapiens, UniProt P14780); test: Inhibition of MMP9
[2] = target: T2, Matrix metalloproteinase-14 (Homo sapiens, UniProt P50281); test: Inhibition of MMP14
[3] = target: Disintegrin and metalloproteinase domain-containing protein 17 (Homo sapiens, UniProt P78536); test: Inhibition of TACE
Sequence of Disintegrin and metalloproteinase domain-containing protein 17 (Homo sapiens, UniProt P78536) (P78536 whole entry, the tested form may be a part): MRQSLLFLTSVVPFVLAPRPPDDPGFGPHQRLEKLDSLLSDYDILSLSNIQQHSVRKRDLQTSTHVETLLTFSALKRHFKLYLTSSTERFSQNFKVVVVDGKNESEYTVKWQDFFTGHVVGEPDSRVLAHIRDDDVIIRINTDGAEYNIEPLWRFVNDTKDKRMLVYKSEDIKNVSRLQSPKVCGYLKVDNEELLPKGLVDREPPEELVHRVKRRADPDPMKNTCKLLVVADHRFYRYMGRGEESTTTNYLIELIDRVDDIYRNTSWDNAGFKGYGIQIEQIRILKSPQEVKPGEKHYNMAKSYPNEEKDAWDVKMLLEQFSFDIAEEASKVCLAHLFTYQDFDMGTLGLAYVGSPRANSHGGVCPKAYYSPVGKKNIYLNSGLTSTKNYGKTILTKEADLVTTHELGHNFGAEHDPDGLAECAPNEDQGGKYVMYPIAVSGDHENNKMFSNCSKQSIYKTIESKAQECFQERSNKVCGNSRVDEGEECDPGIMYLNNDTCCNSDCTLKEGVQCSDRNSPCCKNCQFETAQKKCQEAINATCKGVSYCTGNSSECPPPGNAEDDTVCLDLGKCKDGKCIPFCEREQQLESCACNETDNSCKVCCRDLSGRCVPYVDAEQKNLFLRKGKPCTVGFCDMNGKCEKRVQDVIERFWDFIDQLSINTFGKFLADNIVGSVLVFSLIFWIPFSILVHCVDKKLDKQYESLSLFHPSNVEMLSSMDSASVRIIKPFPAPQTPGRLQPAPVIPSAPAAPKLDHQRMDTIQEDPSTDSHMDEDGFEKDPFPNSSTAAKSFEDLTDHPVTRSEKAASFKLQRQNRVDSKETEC

Interstitial collagenase = target: T3, Interstitial collagenase (Homo sapiens, UniProt P03956)
T3 sequence (P03956 whole entry): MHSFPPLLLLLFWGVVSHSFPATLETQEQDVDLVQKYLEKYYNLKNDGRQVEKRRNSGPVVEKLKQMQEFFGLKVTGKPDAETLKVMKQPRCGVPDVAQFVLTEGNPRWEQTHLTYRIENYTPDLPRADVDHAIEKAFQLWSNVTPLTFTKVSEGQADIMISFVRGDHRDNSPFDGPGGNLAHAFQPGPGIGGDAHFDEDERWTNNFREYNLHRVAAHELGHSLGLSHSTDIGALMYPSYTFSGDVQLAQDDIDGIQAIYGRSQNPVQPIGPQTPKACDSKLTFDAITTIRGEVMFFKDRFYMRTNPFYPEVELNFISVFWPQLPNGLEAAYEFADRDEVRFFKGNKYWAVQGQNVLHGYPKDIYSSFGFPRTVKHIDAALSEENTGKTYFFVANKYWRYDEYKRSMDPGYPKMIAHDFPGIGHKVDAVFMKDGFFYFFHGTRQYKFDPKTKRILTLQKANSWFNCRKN

[4] = target: T4, 72 kDa type IV collagenase (Homo sapiens, UniProt P08253)
Target sequence in this assay (P08253 whole entry): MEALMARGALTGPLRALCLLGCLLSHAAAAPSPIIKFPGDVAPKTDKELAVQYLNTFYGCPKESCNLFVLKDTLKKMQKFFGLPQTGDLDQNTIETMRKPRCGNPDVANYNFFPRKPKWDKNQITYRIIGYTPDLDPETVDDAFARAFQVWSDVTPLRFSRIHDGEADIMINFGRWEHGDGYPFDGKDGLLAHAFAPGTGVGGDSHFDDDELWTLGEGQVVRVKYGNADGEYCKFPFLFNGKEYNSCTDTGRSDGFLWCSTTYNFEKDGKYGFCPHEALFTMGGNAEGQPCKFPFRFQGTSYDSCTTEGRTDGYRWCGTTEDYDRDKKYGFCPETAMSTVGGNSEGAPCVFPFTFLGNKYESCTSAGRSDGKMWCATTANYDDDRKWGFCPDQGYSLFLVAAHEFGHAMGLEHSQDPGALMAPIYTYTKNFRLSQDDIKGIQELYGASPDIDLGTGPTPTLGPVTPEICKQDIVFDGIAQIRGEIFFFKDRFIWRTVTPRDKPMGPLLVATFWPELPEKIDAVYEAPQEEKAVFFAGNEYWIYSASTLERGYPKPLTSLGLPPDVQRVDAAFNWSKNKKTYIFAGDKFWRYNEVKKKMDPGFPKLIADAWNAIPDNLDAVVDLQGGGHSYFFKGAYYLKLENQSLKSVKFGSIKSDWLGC

[5] = Selectivity for TACE over MMP1
[6] = Selectivity for TACE over MMP2
[7] = Selectivity for TACE over MMP3
[8] = Selectivity for TACE over MMP7
[9] = Selectivity for TACE over MMP14
[10] = Selectivity for TACE over BMP1
[11] = Selectivity for TACE over ADAM10
[12] = target: Disintegrin and metalloproteinase domain-containing protein 17 (Sus scrofa, UniProt O77636); test: Inhibition of pig TACE
Sequence of Disintegrin and metalloproteinase domain-containing protein 17 (Sus scrofa, UniProt O77636) (O77636 whole entry, the tested form may be a part): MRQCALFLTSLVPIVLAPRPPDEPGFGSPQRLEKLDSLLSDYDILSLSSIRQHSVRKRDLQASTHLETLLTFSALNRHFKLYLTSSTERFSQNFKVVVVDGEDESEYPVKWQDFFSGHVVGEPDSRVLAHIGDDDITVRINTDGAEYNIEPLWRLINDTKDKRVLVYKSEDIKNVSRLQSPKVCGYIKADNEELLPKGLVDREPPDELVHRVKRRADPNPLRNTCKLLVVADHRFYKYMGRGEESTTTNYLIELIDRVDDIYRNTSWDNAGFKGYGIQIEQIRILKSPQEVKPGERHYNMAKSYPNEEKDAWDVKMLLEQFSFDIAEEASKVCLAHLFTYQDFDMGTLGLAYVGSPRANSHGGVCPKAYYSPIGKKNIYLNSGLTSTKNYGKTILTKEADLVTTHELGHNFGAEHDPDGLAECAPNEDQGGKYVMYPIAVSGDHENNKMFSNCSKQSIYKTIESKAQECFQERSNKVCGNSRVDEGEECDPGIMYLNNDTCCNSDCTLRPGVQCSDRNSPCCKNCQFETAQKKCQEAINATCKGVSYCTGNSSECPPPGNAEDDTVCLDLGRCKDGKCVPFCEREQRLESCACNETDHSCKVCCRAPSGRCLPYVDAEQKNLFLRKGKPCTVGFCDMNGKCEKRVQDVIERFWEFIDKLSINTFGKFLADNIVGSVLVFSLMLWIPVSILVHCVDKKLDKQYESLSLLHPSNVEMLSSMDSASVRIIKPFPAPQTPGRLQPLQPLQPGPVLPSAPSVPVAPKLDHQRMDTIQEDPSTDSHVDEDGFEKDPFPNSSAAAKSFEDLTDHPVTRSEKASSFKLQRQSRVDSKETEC

Matrilysin = target: T5, Matrilysin (Homo sapiens, UniProt P09237)
T5 sequence (P09237 whole entry): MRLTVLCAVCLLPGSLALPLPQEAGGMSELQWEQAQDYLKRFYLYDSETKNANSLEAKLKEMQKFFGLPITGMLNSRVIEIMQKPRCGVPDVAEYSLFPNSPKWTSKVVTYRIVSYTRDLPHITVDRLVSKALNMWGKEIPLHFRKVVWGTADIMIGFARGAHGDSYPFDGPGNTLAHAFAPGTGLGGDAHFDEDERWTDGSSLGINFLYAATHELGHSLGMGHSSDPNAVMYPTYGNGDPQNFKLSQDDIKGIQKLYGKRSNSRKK

Stromelysin-1 [13] = target: T6, Stromelysin-1 (Homo sapiens, UniProt P08254)
Target sequence in this assay (P08254 whole entry): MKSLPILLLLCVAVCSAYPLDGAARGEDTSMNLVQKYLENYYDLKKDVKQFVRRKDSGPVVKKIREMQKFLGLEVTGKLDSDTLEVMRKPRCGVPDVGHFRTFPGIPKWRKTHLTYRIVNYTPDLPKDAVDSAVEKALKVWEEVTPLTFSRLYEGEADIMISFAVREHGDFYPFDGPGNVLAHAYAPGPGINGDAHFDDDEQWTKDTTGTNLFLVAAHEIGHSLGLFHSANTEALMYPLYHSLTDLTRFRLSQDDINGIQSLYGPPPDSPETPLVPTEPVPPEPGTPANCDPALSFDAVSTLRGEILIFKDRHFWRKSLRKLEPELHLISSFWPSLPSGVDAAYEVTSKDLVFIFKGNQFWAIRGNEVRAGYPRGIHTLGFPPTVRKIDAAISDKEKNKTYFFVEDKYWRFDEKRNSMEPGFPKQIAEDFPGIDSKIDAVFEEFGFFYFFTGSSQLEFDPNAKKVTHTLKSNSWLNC

[14] = target: T7, Interstitial collagenase (Homo sapiens) (UniProt P03956); test: Inhibition of MMP1 at 100 uM
T7 sequence (whole entry): T3 sequence (P03956 whole entry)

Neutrophil collagenase [15] = target: T8, Neutrophil collagenase (Homo sapiens, UniProt P22894); test: Inhibition of MMP8
Target sequence in this assay (P22894 whole entry): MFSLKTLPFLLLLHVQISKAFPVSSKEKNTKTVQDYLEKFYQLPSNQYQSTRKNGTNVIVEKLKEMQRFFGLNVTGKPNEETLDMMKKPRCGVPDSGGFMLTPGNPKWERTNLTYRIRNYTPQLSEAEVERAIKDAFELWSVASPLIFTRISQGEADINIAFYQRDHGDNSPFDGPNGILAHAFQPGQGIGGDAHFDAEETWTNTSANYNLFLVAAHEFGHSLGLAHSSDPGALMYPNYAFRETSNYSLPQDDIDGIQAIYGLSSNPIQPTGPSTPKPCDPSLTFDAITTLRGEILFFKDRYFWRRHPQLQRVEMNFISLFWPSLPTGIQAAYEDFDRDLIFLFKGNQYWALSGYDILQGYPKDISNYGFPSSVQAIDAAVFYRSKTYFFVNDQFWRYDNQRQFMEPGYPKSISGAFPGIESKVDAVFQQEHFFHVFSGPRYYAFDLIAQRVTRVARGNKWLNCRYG

[16] = target: T4, 72 kDa type IV collagenase; test: Inhibition of MMP2 up to 100 uM
Stromelysin-1 [17] = target: T6, Stromelysin-1; test: Inhibition of MMP3 up to 100 uM
Target sequence in this assay (P08254 100-477 limits assumed): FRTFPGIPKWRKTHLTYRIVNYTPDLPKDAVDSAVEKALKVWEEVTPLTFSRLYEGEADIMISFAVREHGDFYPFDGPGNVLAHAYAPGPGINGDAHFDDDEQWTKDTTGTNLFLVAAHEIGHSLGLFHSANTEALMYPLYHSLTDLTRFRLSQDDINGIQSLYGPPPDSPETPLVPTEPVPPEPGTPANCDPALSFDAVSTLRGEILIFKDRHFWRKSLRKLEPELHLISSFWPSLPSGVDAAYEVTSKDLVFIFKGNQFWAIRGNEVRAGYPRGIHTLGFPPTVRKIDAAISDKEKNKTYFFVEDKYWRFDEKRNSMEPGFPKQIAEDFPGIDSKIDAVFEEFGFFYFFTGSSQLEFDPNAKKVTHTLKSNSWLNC

[18] = target: T9, Matrilysin (Homo sapiens) (UniProt P09237); test: Inhibition of MMP7 up to 100 uM
T9 sequence (whole entry): T5 sequence (P09237 whole entry)

Neutrophil collagenase [19] = target: T8, Neutrophil collagenase; test: Inhibition of MMP8 up to 100 uM
[20] = target: T1, Matrix metalloproteinase-9; test: Inhibition of MMP9 up to 100 uM
[21] = target: T10, Macrophage metalloelastase (Homo sapiens, UniProt P39900); test: Inhibition of MMP12 up to 100 uM
[22] = target: T2, Matrix metalloproteinase-14; test: Inhibition of MMP14 up to 100 uM
[23] = target: T11, Matrix metalloproteinase-17 (Homo sapiens) (UniProt Q9ULZ9); test: Inhibition of MMP17 up to 100 uM
T11 sequence (whole entry): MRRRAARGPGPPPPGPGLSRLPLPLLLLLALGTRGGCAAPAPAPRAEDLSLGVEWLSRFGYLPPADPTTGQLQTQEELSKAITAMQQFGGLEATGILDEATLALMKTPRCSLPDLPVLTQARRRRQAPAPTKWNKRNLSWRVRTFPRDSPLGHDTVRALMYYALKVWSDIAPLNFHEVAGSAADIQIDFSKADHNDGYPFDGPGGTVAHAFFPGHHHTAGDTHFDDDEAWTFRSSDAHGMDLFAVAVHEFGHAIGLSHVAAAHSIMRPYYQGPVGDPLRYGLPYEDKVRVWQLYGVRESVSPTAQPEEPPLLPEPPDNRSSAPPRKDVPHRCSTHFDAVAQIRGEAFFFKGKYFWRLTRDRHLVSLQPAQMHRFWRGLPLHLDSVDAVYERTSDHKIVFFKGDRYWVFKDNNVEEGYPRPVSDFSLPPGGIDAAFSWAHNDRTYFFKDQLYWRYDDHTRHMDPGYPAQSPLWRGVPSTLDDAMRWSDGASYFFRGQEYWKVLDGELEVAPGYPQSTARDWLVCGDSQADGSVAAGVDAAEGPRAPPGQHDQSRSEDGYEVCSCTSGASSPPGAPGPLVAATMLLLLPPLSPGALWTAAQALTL

[24] = target: T10, Macrophage metalloelastase; test: Inhibition of MMP12
Target sequence in this assay (P39900 whole entry): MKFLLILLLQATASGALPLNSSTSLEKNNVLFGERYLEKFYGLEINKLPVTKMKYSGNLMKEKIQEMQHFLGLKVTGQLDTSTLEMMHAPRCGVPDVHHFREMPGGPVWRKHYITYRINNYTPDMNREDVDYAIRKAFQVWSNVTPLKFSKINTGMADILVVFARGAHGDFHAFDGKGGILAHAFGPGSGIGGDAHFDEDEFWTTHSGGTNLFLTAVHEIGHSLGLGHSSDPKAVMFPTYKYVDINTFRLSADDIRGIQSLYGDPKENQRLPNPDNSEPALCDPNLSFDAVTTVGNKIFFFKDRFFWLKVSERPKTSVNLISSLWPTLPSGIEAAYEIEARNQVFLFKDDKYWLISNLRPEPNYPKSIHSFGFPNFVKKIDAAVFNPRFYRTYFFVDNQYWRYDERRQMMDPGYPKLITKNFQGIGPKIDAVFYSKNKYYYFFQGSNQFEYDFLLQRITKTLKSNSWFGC

[25] = target: T12, Disintegrin and metalloproteinase domain-containing protein 10 (Homo sapiens, UniProt O14672); test: Inhibition of ADAM10
T12 sequence (O14672 whole entry): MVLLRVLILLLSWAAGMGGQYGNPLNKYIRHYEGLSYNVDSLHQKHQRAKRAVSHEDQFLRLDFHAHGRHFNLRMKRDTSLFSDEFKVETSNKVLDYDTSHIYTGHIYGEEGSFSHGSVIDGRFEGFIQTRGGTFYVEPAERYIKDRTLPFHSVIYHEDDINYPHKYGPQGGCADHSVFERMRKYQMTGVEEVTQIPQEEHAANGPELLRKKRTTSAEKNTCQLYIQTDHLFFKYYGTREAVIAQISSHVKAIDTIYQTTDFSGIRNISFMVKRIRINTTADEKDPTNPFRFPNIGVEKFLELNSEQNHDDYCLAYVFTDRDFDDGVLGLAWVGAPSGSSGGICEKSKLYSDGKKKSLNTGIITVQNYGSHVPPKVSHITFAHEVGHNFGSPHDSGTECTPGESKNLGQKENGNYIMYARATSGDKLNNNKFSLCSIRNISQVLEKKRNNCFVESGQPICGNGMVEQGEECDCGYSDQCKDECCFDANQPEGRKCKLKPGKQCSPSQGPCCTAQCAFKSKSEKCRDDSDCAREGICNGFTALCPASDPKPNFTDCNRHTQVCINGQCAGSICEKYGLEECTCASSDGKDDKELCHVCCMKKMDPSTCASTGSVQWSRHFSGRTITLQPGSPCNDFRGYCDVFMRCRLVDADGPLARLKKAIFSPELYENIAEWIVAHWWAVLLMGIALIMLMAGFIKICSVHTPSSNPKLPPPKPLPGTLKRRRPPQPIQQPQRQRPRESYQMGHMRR

[26] = Inhibition of bovine aggrecanase; parameters: species or system Bos taurus
[27] = Selectivity for pig TACE over MMP1
[28] = Selectivity for pig TACE over MMP2
[29] = Selectivity for pig TACE over MMP3
[30] = Selectivity for pig TACE over MMP7
[31] = Selectivity for pig TACE over MMP8
[32] = Selectivity for pig TACE over MMP9

T1 sequence (P14780 whole entry): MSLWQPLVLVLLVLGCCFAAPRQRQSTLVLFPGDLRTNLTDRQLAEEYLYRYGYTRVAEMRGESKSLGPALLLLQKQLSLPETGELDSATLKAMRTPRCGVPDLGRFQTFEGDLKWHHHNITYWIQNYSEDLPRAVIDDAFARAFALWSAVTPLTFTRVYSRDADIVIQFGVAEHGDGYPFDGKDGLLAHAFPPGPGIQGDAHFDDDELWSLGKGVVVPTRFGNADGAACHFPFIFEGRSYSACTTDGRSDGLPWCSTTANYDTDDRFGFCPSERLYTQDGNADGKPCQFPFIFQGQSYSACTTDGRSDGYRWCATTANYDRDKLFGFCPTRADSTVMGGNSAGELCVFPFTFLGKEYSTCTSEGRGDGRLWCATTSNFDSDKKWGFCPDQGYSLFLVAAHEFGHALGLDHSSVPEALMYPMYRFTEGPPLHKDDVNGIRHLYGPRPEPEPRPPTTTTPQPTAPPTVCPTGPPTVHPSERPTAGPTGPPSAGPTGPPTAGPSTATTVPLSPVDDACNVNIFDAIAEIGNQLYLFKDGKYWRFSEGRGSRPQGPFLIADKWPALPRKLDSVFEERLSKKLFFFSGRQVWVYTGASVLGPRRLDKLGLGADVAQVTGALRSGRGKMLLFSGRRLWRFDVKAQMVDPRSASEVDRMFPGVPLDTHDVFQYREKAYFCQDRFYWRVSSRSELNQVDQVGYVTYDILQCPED

CC#CCOc1ccc(S(=O)(=O)CC2(C(=O)NO)CCN(c3c(C)noc3C)CC2)cc1
IC50 (Collagenase 3): 2280 nM | IC50 [1]: 5500 nM | IC50 [2]: 24000 nM | IC50 [3]: 2.2 nM | IC50 (Interstitial collagenase): 37300 nM | IC50 [4]: 664 nM

COC(=O)[C@@]1(Cc2ccc(OCc3cc(C)nc4ccccc34)cc2)C[C@@H]1C(=O)NO
fold change (FC) [5]: > 12500 | fold change (FC) [6]: 1100 | fold change (FC) [7]: 100 | fold change (FC) [8]: 200 | fold change (FC) [9]: 1800 | fold change (FC) [10]: 2200 | fold change (FC) [11]: > 7000

Cc1cc(COc2ccc(NC(=O)[C@H]3[C@H](C(=O)NO)CCCN3C)cc2)c2ccccc2n1
IC50 [12]: 6.2 nM | Ki [1]: > 2130 nM | Ki (Interstitial collagenase): > 4950 nM | Ki [4]: > 3330 nM

Cc1cc(=O)c(O)c(C(=O)NCc2ccc(-c3ccc(-c4ccccc4)cc3)cc2)o1
IC50 (Interstitial collagenase): > 50000 nM | IC50 [4]: > 50000 nM

Cc1cc(COc2ccc(C(=O)Nc3ccccc3C(=O)c3c[nH]c(=O)[nH]3)cc2)c2ccccc2n1
IC50 [12]: 9 nM | Ki (Matrilysin): > 636 nM

CCCN1C(=O)[C@H](CS)NC(=O)[C@@H]1Cc1ccc([N+](=O)[O-])cc1
IC50 (Stromelysin-1 [13]): > 20000 nM

COC[C@@H](NC(=O)[C@@H](NC(=O)[C@H](CCCc1ccc(-c2ccccc2)c(C)c1)CC(=O)O)C(C)(C)C)c1ccccc1
inhibition [14]: 20%

Cc1cc(COc2ccc(S(=O)(=O)CC(C=C3CCN(CC(C)C)CC3)N(O)C=O)cc2)c2ccccc2n1 (configuration not stated)
IC50 (Neutrophil collagenase [15]): > 100000 nM | IC50 [2]: > 100000 nM | IC50 (Interstitial collagenase): > 100000 nM

Cn1c(=O)n(Cc2ccc(C(=O)O)cc2)c(=O)c2cc(C#CCc3ccccc3)ccc21
Activity [14]: inactive | Activity [16]: inactive | Activity (Stromelysin-1 [17]): inactive | Activity [18]: inactive | Activity (Neutrophil collagenase [19]): inactive | Activity [20]: inactive | Activity [21]: inactive | Activity [22]: inactive | Activity [23]: inactive

COc1ccc(C2=NNC3(S2)C(=O)N(Cc2ccccc2)c2ccc(C)cc23)cc1 (configuration not stated)
IC50 (Collagenase 3): > 100000 nM | IC50 [24]: > 22000 nM

COc1c(Br)ccc2oc(COc3ccc(-c4ccc(S(=O)(=O)N[C@@H](C(=O)O)C(C)C)cc4)cc3)c(C)c12
IC50 (Neutrophil collagenase [15]): 42 nM | IC50 [3]: > 25000 nM | IC50 (Interstitial collagenase): > 400000 nM | IC50 (Stromelysin-1 [13]): 81 nM

CC#CCOc1ccc(S(=O)(=O)N[C@@H](C(=O)NO)[C@H](C)O)cc1
IC50 [25]: 1090 nM | IC50 (Neutrophil collagenase [15]): 35 nM | IC50 (Collagenase 3): 96 nM | IC50 [1]: 777 nM | IC50 [2]: 582 nM | IC50 [3]: 2 nM | IC50 (Interstitial collagenase): 2470 nM | IC50 (Matrilysin): 961 nM

O=S(=O)(CC1CS1)c1ccc(Oc2ccccc2)cc1 (configuration not stated)
Ki [3]: 3700 nM

Cc1cc(C#N)ccc1N1CCN(S(=O)(=O)CC2(C(=O)NO)CCN(C(=O)O[C@@H]3CCOC3)CC2)CC1
IC50 [25]: 26 nM | IC50 [1]: > 5000 nM | IC50 (Interstitial collagenase): > 5000 nM | IC50 [4]: > 5000 nM | IC50 (Stromelysin-1 [13]): > 5000 nM

O=C(O)C[C@@H](NC(=O)c1cc(-c2ccc(-c3ccncc3)cc2)cs1)c1ccccc1
IC50 (Neutrophil collagenase [15]): 1700 nM | IC50 [1]: 980 nM | IC50 [4]: > 100000 nM | IC50 (Stromelysin-1 [13]): 390 nM

O=C(NO)[C@@H](NCC1CC1)[C@@H](Cc1cccc(O)c1)C(=O)N[C@H]1c2ccccc2C[C@H]1O
IC50 [26]: 12 nM

CN1CC2(CC2)C[C@H](C(=O)NO)[C@H]1C(=O)N1CCN(c2ccc(C(F)(F)F)cn2)CC1
IC50 [25]: 97 nM | IC50 [3]: 2040 nM | IC50 [24]: 564 nM

COC(=O)[C@]1(c2cccc(OCc3cc(C)nc4ccccc34)c2)C[C@H]1C(=O)NO
fold change (FC) [5]: > 8300 | fold change (FC) [6]: 3400 | fold change (FC) [7]: 1300 | fold change (FC) [8]: > 8300 | fold change (FC) [9]: 770 | fold change (FC) [10]: 1400 | fold change (FC) [11]: 4

Cc1cc(COc2ccc(C(=O)N[C@@H]3CCOC[C@@H]3C(=O)NO)cc2)c2ccccc2n1
fold change (FC) [27]: > 30000 | fold change (FC) [28]: > 30000 | fold change (FC) [29]: 427 | fold change (FC) [30]: 200 | fold change (FC) [31]: 5500 | fold change (FC) [32]: > 14000

CC1(CN[C@H](C(=O)NO)[C@@H](Cc2cccc(O)c2)C(=O)N[C@H]2c3ccccc3C[C@H]2O)CC1
IC50 [26]: 8 nM | Ki (Collagenase 3): > 5000 nM | Ki [1]: < 1 nM | Ki (Interstitial collagenase): 5250 nM | Ki [4]: > 3000 nM | Ki (Stromelysin-1 [13]): > 4500 nM

COC[C@@H](NC(=O)[C@@H](NC(=O)[C@H](CCCc1ccc(-c2ccccc2)c(C)c1)CC(=O)NO)C(C)(C)C)c1ccccc1
IC50 [1]: 560 nM | IC50 [2]: 930 nM | IC50 (Interstitial collagenase): 5900 nM | IC50 [4]: 750 nM | IC50 (Stromelysin-1 [13]): 2.1 nM
